According to patent EP0298890A2, “New 2-(P-isobutylphenyl)-propionic acid ester and process for the preparation thereof” (Sune Coma, Nuria, priority 1987, dated 1989):

Columns and labels:
solubility in water = format: physicochemical; conditions: qualitative statement, no method given
rat [1] = assay: phenylbenzoquinone test p.o. in the rat (analgesic effect); format: in vivo; conditions: comparison of ED₅₀ values
rat [2] = assay: carrageenin test p.o. in the rat (antiinflammatory effect); format: in vivo; conditions: comparison of ED₅₀ values

solubility in water compared with the formula II acid (solubility in water): more soluble in water
Compound: CC(C)Cc1ccc(C(C)C(=O)OCCN(C)C)cc1 (stereo not drawn) [I, N,N-dimethylaminoethanol 2-(p-isobutylphenyl)-propionate]
analgesic activity compared with the formula II compound (rat [1]): twice as active as an analgesic
antiinflammatory activity compared with the formula II compound (rat [2]): same antiinflammatory activity
